In US20240391870A1 (Arcturus Therapeutics, Inc., priority 2023, published 2024):

How the values were obtained:
[1] = In vivo biodegradability assay (lipid in liver); details: mouse liver, 48 h
Experimental: In vivo biodegradability assay was performed to assess the biodegradability of lipids in the LNP. Briefly, mice were injected with either 0.1 or 0.03 mg/Kg dose and after 24 or 48 hours mice livers were collected. To measure the concentration of lipids in the mouse liver, liver samples were homogenized in appropriate buffer in 1-10 dilution and mixed with the same amount of stabilized plasma. The samples were then mixed with organic solvents spiked with internal standard to precipitate proteins. After centrifugation, supernatant was diluted further with organic solvent before sample analysis by LC-MS. In LC-MS analysis, positive electrospray ionization was used, and multiple reaction monitoring (MRM) parameters were set up to specifically target the lipid analyte and internal standard. Calibration standards were prepared in stabilized plasma and mixed with same amount of homogenization buffer before protein precipitation. Quality control samples with known amounts of lipid was prepared in blank liver homogenate to monitor the precision and accuracy of the assay.

hEPO = hEPO mRNA expression evaluation (hEPO-LNPs); format: in vivo, Balb/c mice; details: serum hEPO after 6 hr; for EPO exprssn (ng/mL) 0.1 mpk: 0.1 mpk i.v.; for EPO exprssn (ng/mL) 0.03 mpk: 0.03 mpk i.v.
Experimental: Protocol for hEPO mRNA Expression Evaluation
Lipid formulations comprising a hEPO mRNA below were evaluated for their ability to express hEPO in vivo according to the protocol of this example. All animal experiments were conducted using institutionally-approved protocols (IACUC). In this protocol, female Balb/c mice at least 6-8 weeks of age were purchased from Charles River Laboratory. […] After 6 hr, blood was collected with serum separation tubes, and the serum was isolated by centrifugation. Serum hEPO levels were then measured using an ELISA assay (Human Erythropoietin Quantikine IVD ELISA Kit, R&D Systems, Minneapolis, MD).

[2] = Measured pKa in the indicated formulation; details: for pKa: EPO: measured in EPO formulation; for pKa: FVII: measured in FVII formulation
Experimental: Measured pKa values were determined based on the pH measured in the indicated formulation (i.e., EPO or FVII formulation).

factor VII = assay: Factor VII knock down evaluation (LNP with FVII siRNA); format: in vivo, Balb/C mice; details: plasma FVII after 48 h vs saline control; for FVII KD % 0.01 mpk: 0.01 mpk i.v.; for FVII KD % 0.03 mpk: 0.03 mpk i.v.
Experimental: Lipid formulations comprising a FVII siRNA further described below were evaluated for their knockdown activity using the protocol of this example. In the FVII evaluation, seven to eight week-old, female Balb/C mice were purchased from Charles River Laboratories (Hollister, CA). The mice were held in a pathogen-free environment and all procedures involving the mice were performed in accordance with guidelines established by the Institutional Animal Care and Use Committee (IACUC). Lipid nanoparticles containing factor VII siRNA were administered intravenously at a dosing volume of 10 mL/kg and two dose levels (0.03 and 0.01 mg/kg). After 48 h, the mice were anesthetized with isoflurane and blood was collected retro-orbitally into Microtainer® tubes coated with 0.109 M sodium citrate buffer (BD Biosciences, San Diego, CA) and processed to plasma. Plasma specimens were tested for factor VII levels immediately or stored at −80° C. for later analysis. Measurement of FVII protein in plasma was determined using the colorimetric Biophen VII assay kit (Aniara Diagnostica, USA). Absorbance was measured at 405 nm and a calibration curve was generated using the serially diluted control plasma to determine levels of factor VII in plasma from treated animals, relative to the saline-treated control animals.

Mouse plasma stability = format: in vitro ADME, CD-1 mouse; details: 1 uM lipid
Experimental: Lipid stock solution was prepared by dissolution of the lipid in isopropanol at the concentration of 5 mg/mL. A requisite volume of the lipid-isopropanol solution was then diluted to 100 μM concentration at a total volume of 1.0 mL with in 50:50 (v/v) ethanol/water. Ten microliters of this 100 μM solution was spiked into 1.0 mL of mouse plasma (BioIVT, Cat. No.: MSE00PLNHUNN, CD-1 mouse, anticoagulant: sodium heparin, not filtered) that was pre-warmed to 37° C. and was stirred at 50 rpm with a magnetic stir bar. The starting concentration of lipids in plasma was thus 1 μM. At time points 0, 15, 30, 45, 60 and 120 min, 0.1 mL of the plasma was withdrawn from the reaction mixture and the protein was precipitated by adding 0.9 mL of ice-cold 4:1 (v/v) acetonitrile/methanol with 1 μg/mL of a selected internal standard lipid added. After filtration through a 0.45 micron 96-well filtering plate, the filtrates were analyzed by LC-MS (Thermo Fisher's Vanquish UHPLC—LTQ XL linear ion trap Mass Spectrometer); Waters XBridge BEH Shield RP18 2.5 micron (2.1×100 mm) column with its matching guard column. Mobile phase A was 0.1% formic acid in water, and mobile phase B was 0.1% formic acid in 1:1 (v/v) acetonitrile/methanol. Flow rate was 0.5 ml/min. Elution gradient was: Time 0-1 min: 10% B; 1-6 min: 10%-95% B; 6-8.5 min: 95% B; 8.5-9 min: 95%-10% B; 9-10 min: 10% B. Mass spectrometry was in positive scanning mode from 600-1100 m/z. The peak of the molecular ion of the lipids was integrated in the extracted ion chromatography (XIC) using Xcalibur software (Thermo Fisher). The relative peak area compared to T=0, after normalization by the peak area of the internal standard, was used as the percentage of the lipid remaining at each time point. T1/2 values were calculated using the first-order decay model.

| Compound | In vivo degradability (ng/tissue) at 48h 0.03 mpk ([1]; Table 1) | In vivo degradability (ng/tissue) at 48h 0.1 mpk ([1]; Table 1) | In vivo degradability (ng/tissue) at 48h 0.03 mpk ([1]; Table 2) | In vivo degradability (ng/tissue) at 48h 0.1 mpk ([1]; Table 2) | pKa ([2]; EPO formulation) | pKa ([2]; FVII formulation) | pKa: EPO ([2]; Table 2) | pKa: FVII ([2]; Table 2) | Percent remaining in mouse plasma after 2 h (Mouse plasma stability; Table 1, mouse plasma 37 C) | Percent remaining in mouse plasma after 2 h (Mouse plasma stability; Table 2, mouse plasma 37 C) | EPO exprssn (ng/mL) 0.1 mpk (hEPO; Table 1) | EPO exprssn (ng/mL) 0.1 mpk (hEPO; Table 2) | FVII KD % 0.01 mpk (factor VII; Table 1) | FVII KD % 0.03 mpk (factor VII; Table 1) | FVII KD % 0.01 mpk (factor VII; Table 2) | FVII KD % 0.03 mpk (factor VII; Table 2) | EPO exprssn (ng/mL) 0.03 mpk (hEPO; Table 1) | EPO exprssn (ng/mL) 0.03 mpk (hEPO; Table 2) | pKa: EPO ([2]; Table 1) |
| --- | --- | --- | --- | --- | --- | --- | --- | --- | --- | --- | --- | --- | --- | --- | --- | --- | --- | --- | --- |
| CN(C)CCCSC(=O)N(CCCCCC(=O)OC(COC(=O)CCC1CCCCC1)COC(=O)CCC1CCCCC1)CCCCCC(=O)OC(COC(=O)CCC1CCCCC1)COC(=O)CCC1CCCCC1 [LIPID 12, ((6,6′-((((3-(Dimethylamino)propyl)thio)carbonyl)azanediyl)bis(hexanoyl))bis(oxy))bis(propane-2,1,3-triyl)tetrakis(3-cyclohexylpropanoate)] | BLOQ | BLOQ | BLOQ | BLOQ | 6.46 | 6.61 | 6.46 | 6.61 | 57% | 57% | 768 ng/mL | 768 ng/mL | 91% | 69% | 91% | 69% | 286 ng/mL | 286 ng/mL | – |
| CC(CC1CCCCC1)C(=O)OCC(COC(=O)C(C)CC1CCCCC1)OC(=O)CCCN(CCCC(=O)OC(COC(=O)C(C)CC1CCCCC1)COC(=O)C(C)CC1CCCCC1)C(=O)SCCCN(C)C (stereo not shown) [LIPID 17, ((4,4′-((((3-(Dimethylamino)propyl)thio)carbonyl)azanediyl)bis(butanoyl))bis(oxy))bis(propane-2,1,3-triyl)tetrakis(3-cyclohexyl-2-methylpropanoate)] | BLOQ | BLOQ | BLOQ | BLOQ | 6.35 | 6.35 | – | (6.35/6.35) | – | 100% | 1555 ng/mL | 1082 ng/mL | 55% | 81% | 55% | 81% | 1082 ng/mL | – | (6.35/ |
| CN(C)CCCSC(=O)N(CCCC(=O)OC(COC(=O)CCC1CCCCC1)COC(=O)CCC1CCCCC1)CCCC(=O)OC(COC(=O)CCC1CCCCC1)COC(=O)CCC1CCCCC1 [LIPID 10, ((4,4′-((((3-(Dimethylamino)propyl)thio)carbonyl)azanediyl)bis(butanoyl))bis(oxy))bis(propane-2,1,3-triyl)tetrakis(3-cyclohexylpropanoate)] | BLOQ | BLOQ | BLOQ | BLOQ | 6.46 | 6.67 | 6.46 | 6.67 | 36% | 36% | 1179 ng/mL | 1179 ng/mL | 92% | 83% | 92% | 83% | 387 ng/mL | 387 ng/mL | – |

Now from value to molecule, other results behind:

| In vivo degradability (ng/tissue) at 48h 0.03 mpk ([1]; Table 1) | In vivo degradability (ng/tissue) at 48h 0.1 mpk ([1]; Table 1) | In vivo degradability (ng/tissue) at 48h 0.03 mpk ([1]; Table 2) | In vivo degradability (ng/tissue) at 48h 0.1 mpk ([1]; Table 2) | pKa ([2]; EPO formulation) | pKa ([2]; FVII formulation) | pKa: EPO ([2]; Table 2) | pKa: FVII ([2]; Table 2) | Percent remaining in mouse plasma after 2 h (Mouse plasma stability; Table 1, mouse plasma 37 C) | Percent remaining in mouse plasma after 2 h (Mouse plasma stability; Table 2, mouse plasma 37 C) | Compound | EPO exprssn (ng/mL) 0.1 mpk (hEPO; Table 1) | EPO exprssn (ng/mL) 0.1 mpk (hEPO; Table 2) | FVII KD % 0.01 mpk (factor VII; Table 1) | FVII KD % 0.03 mpk (factor VII; Table 1) | FVII KD % 0.01 mpk (factor VII; Table 2) | FVII KD % 0.03 mpk (factor VII; Table 2) | EPO exprssn (ng/mL) 0.03 mpk (hEPO; Table 1) | EPO exprssn (ng/mL) 0.03 mpk (hEPO; Table 2) | pKa: EPO ([2]; Table 1) |
| --- | --- | --- | --- | --- | --- | --- | --- | --- | --- | --- | --- | --- | --- | --- | --- | --- | --- | --- | --- |
| <340 ng/tissue | 639 ng/tissue | <340 ng/tissue | 639 ng/tissue | 6.44 | 6.49 | 6.44 | 6.49 | 100% | 100% | CCCCCCC(C)C(=O)OCC(COC(=O)C(C)CCCCCC)OC(=O)CCCN(CCCC(=O)OC(COC(=O)C(C)CCCCCC)COC(=O)C(C)CCCCCC)C(=O)SCCCN(C)C (stereo not shown) [LIPID 18, ((4,4′-((((3-(Dimethylamino)propyl)thio)carbonyl)azanediyl)bis(butanoyl))bis(oxy))bis(propane-2,1,3-triyl)tetrakis(2-methyloctanoate)] | 1081 ng/mL | 1081 ng/mL | 60% | 88% | 60% | 88% | – | – | – |
| BLOQ | BLOQ | BLOQ | BLOQ | 6.5 | – | (6.50/ND) | – | 81% | 81% | CCCCCCCCC(=O)OCC(COC(=O)CCCCCCCC)OC(=O)CN(CC(=O)OC(COC(=O)CCCCCCCC)COC(=O)CCCCCCCC)C(=O)SCCCN(C)C [LIPID 8, ((2,2′-((((3-(Dimethylamino)propyl)thio)carbonyl)azanediyl)bis(acetyl))bis(oxy))bis(propane-2,1,3-triyl)tetranonanoate] | 701 ng/mL | 701 ng/mL | – | – | – | – | 169 ng/mL | 169 ng/mL | – |
| <340 ng/tissue | <340 ng/tissue | <340 ng/tissue | <340 ng/tissue | 6.4 | 6.61 | 6.40 | 6.61 | 74% | 74% | CCCCCCCCC(=O)OCC(COC(=O)CCCCCCCC)OC(=O)CCN(CCC(=O)OC(COC(=O)CCCCCCCC)COC(=O)CCCCCCCC)C(=O)SCCCN(C)C [LIPID 13] | – | 1488.1 ng/mL | 60% | 87% | 60% | 87% | – | – | – |
| <340 ng/tissue | 847 ng/tissue | <340 ng/tissue | 847 ng/tissue | 6.27 | – | (6.27/ND) | – | – | 100% | CCCCCC(C)(C)C(=O)OCC(COC(=O)C(C)(C)CCCCC)OC(=O)CCCN(CCCC(=O)OC(COC(=O)C(C)(C)CCCCC)COC(=O)C(C)(C)CCCCC)C(=O)SCCCN(C)C [LIPID 19, ((4,4′-((((3-(Dimethylamino)propyl)thio)carbonyl)-azanediyl)bis(butanoyl))bis(oxy))bis(propane-2,1,3-triyl)tetrakis(2,2-dimethylheptanoate)] | – | 958 ng/mL | – | – | – | – | – | – | – |
